{"source": "patent US11225469B2", "about": "“Inhibitors of phosphoglycerate dehydrogenase (PHGDH) and uses thereof” (Whitehead Institute for Biomedical Research, priority 2015, dated 2022)", "key": {"[1]": {"molecular_target": "GAPDH (Homo sapiens (Human), UniProt P04406)", "sequence (P04406 whole entry)": "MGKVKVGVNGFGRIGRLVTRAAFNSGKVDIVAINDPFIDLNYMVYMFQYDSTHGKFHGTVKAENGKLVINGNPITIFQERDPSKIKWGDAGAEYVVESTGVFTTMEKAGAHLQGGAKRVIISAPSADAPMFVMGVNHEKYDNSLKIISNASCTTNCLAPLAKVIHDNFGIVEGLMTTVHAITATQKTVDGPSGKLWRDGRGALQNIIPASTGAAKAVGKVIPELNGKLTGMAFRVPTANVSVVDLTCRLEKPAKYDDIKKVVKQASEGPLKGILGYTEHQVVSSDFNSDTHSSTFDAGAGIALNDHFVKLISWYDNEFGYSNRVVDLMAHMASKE", "assay": "Counter-screen against GAPDH", "type": "biochemical", "conditions": "Table E11", "description": "(§1) GAPDH substrate buffer contained 210 mM Tris pH 7.4, 2.5 mM NaH2PO4 pH 7.4, 2 mM DL-Glyceraldehyde 3-phosphate, 1.75 mM MgCl2, 0.01 mM NAD+, 0.11 mM resazurin, 0.2 mg/mL BSA, and 0.01% Tween-20. GAPDH enzyme buffer contained 50 mM Tris pH 7.4, 100 mM NaCl, 0.02 mM TCEP, 0.01 mM EDTA, 0.1 mg/mL BSA, 0.42 mg/mL diaphorase, and 2.5 nM GAPDH. The GAPDH, GPD1, and GPD1L assays were run in 384-well plates using the same protocol and readout as the PHGDH assay. […] GPD1 enzyme buffer contained 50 mM Tris pH 7.4, 100 mM NaCl, 0.08 mM TCEP, 0.4 mg/mL BSA, 0.03 μM EDTA, and 0.8 nM GPD1. 70 μL of substrate buffer were mixed with 10 μL enzyme buffer. GPD1L substrate buffer contained 200 mM Tris pH 7.4, 0.05 mM sn-G3-P, 2 mM MgCl2, 0.04 mM NAD+, 0.11 mM resazurin, 0.1 mg/mL BSA, and 0.02% Tween-20. GPD1L enzyme buffer contained 50 mM Tris pH 7.4, 100 mM NaCl, 0.02 mM TCEP, 0.42 mg/mL diaphorase, 0.1 mg/mL BSA, 0.008 μM EDTA, and 16 nM GPD1L. 40 μL of substrate buffer were mixed with 40 μL of enzyme buffer.\n(§2) The GAPDH and GPD1L assays were read using the same protocol as the PHGDH assay. The GPD1 assay was read using loss of NADH fluorescence (λex=340 nm and λem=460 nm)."}, "[2]": {"molecular_target": "GPD1L (Homo sapiens (Human), UniProt Q8N335)", "sequence (Q8N335 whole entry)": "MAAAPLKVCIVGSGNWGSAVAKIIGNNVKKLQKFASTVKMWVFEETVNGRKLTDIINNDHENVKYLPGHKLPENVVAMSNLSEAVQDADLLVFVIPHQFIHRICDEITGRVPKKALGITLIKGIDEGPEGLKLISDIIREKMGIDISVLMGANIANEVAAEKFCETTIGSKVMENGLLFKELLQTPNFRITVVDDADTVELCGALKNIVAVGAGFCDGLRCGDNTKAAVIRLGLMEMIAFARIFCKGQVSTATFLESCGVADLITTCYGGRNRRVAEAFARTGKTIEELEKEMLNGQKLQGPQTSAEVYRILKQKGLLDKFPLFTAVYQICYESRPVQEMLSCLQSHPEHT", "assay": "Counter-screen against GPD1L", "type": "biochemical", "conditions": "Table E11", "description": "as §1, §2"}, "[3]": {"assay": "Solubility", "type": "physicochemical"}, "[4]": {"molecular_target": "PHGDH (Homo sapiens (Human), UniProt O43175)", "sequence (O43175 whole entry)": "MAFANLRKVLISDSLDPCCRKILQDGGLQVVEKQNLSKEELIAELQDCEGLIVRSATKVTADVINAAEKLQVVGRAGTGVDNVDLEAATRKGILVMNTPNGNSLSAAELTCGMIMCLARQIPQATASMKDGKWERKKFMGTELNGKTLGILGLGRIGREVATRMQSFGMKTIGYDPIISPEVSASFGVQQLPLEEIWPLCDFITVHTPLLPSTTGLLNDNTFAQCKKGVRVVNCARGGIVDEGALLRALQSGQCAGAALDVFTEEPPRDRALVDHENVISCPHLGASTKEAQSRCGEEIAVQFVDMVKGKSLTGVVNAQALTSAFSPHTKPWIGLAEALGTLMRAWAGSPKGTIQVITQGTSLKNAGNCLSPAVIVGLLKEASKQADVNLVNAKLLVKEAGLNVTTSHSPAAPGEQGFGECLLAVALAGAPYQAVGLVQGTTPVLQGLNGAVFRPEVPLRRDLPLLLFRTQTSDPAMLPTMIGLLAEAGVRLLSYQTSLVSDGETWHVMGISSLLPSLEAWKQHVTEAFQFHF", "assay": "Differential scanning fluorimetry", "type": "binding", "description": "Destabilization has been previously observed in the specific binding of small molecules to their protein targets (see, e.g., Hamiaux, C. et al. “DAD2 is an α/β hydrolase likely to be involved in the perception of the plant branching hormone, strigolactone.” Curr Biol 22, 2032-2036 (2012)).\nDifferential scanning fluorimetry assays were carried out in 20 mM TEA pH 8, 100 mM NaCl, 1× SYPRO Orange (Sigma), 2 μM PHGDH in a volume of 10 μL. Unfolding was monitored using a LightCycler 480 II real-time PCR instrument (λex=465 nm and λem=580 nm) over a linear 20 to 85° C. gradient. Plots of the first derivative of fluorescence vs. temperature were generated in LightCycler software."}, "[5]": {"molecular_target": "C234S PHGDH (Homo sapiens (Human), UniProt O43175, C234S)", "sequence (O43175 whole entry C234S)": "as the sequence (O43175 whole entry) above, with C234S counted along it", "assay": "Inhibition of C234S mutant PHGDH in vitro", "type": "biochemical", "conditions": "C234S vs wild type PHGDH"}, "[6]": {"tested_on": "MDA-MB-468 cells", "assay": "Metabolite profiling and 13C labeling in MDA-MB-468 cells (LC-MS)", "type": "cell-based, human", "description": "To track the effects of PHGDH inhibition on glycolysis and serine biosynthesis, MDA-MB-231 and MDA-MB-468 cells were fed universally labeled carbon-13 glucose and the intracellular ratio of labeled to unlabeled glucose was measured at the times indicated in FIG. 3E.\nCells were evenly seeded at 400,000 cells per well of a 6-well plate and allowed to attach for 24 hours. Prior to all labeling experiments, cells were pretreated with 10 μM compound or an equivalent volume of DMSO in RPMI for 1 hour. For steady-state metabolite concentrations, cells were washed with PBS prior to pretreatment and treatment in RPMI lacking serine and glycine. For labeling experiments, U-^13C-glucose, U-^13C-serine, or U-^13C-glycine replaced the corresponding unlabeled RPMI component. Cells were washed in 4° C. 0.9% (w/v) NaCl in LCMS-grade water and extracted in 1 mL/well of 80:20 (v/v) methanol:water with 0.01 ng/mL Val-d8 and Phe-d8 as internal extraction standards. The extraction solvent was dried under nitrogen gas and metabolite samples were stored at −80° C. until analysis. Triplicate identically seeded wells were trypsinzed and analyzed with a Multisizer Coulter Counter (Beckman Coulter) to obtain cell counts and total cell volumes for normalization.\nDried metabolites were resuspended in 100 μL water, centrifuged at 13,000×g at 4° C. for 10 minutes, and the supernatant recovered for analysis. Chromatographic separation was achieved by injecting 1 pi of sample on a SeQuant ZIC-pHILIC Polymeric column (2.1 3 150 mm […], EMD Millipore). Flow rate was set to 0.1 ml per minute, column compartment was set to 25° C., and autosampler sample tray was set to 4° C. Mobile Phase A consisted of 20 mM ammonium carbonate, 0.1% ammonium hydroxide. Mobile Phase B was 100% acetonitrile. The mobile phase gradient (% B) was as follows: 0 min 80%, 30 min 20%, 31 min 80%, 42 min 80%. All mobile phase was introduced into the ionization source set with the following parameters: sheath gas=40, auxiliary gas=15, sweep gas=5, spray voltage=−3.1 kV or +3.0 kV, capillary temperature=275° C., S-lens RF level=40, probe temperature=350° C. Metabolites were monitored using a polarity-switching full-scan method and identified by accurate mass (±20 ppm) and retention time within 15 seconds of a previously run pure standard. Metabolite peaks were identified and integrated with Xcalibur v.2.2 software (Thermo Fisher Scientific) and normalized to internal standard and to total cell volume, m/z ratios for stable isotopically labeled metabolites were obtained from IsoMETLIN (See, e.g., Cho, K. et al. “isoMETLIN: a database for isotope-based metabolomics.” Anal Chem 86, 9358-9361 (2014)) and corrected for natural abundance."}, "[7]": {"tested_on": "serine biosynthetic pathway", "assay": "Labeled serine in brain after tail vein injection of 13C glucose", "type": "in vivo, mouse", "conditions": "35 mg/kg", "description": "The mice were sacrificed at the indicated times, and the fraction of labeled serine in the brain was determined by LC-MS and normalized to the fraction of labeled lactate (FIG. 4J)."}, "[8]": {"tested_on": "MDA-MB-468 cells", "assay": "Cell cycle analysis", "type": "cell-based, human", "conditions": "after 48 hours"}}, "data": [{"smiles": "Cc1cc(C)nc(NC(=S)N2CCN(Cc3ccc(C(F)(F)F)cc3)CC2)c1", "note": "[Compound 267, N-(4,6-dimethylpyridin-2-yl)-4-(4-(trifluoromethyl)benzyl)piperazine-1-carbothioamide]", "values": [{"measurement": "IC50", "setting": "[1]", "value": "≥ 100", "unit": "µM"}, {"measurement": "IC50", "setting": "[2]", "value": "≥ 100", "unit": "µM"}, {"measurement": "aqueous solubility", "setting": "[3]", "value": "reasonable aqueous solubility"}, {"measurement": "Tm of PHGDH", "setting": "[4]", "value": "decreased"}, {"measurement": "reduction of potency of PHGDH inhibition by C234S mutation", "setting": "[5]", "value": "approximately 3 fold"}, {"measurement": "intracellular glucose concentration", "setting": "[6]", "value": "did not change"}, {"measurement": "incorporation of 13C from exogenous U-13C-serine into AMP and dTMP", "setting": "[6]; treatment for 4 hours", "value": "decreased"}, {"measurement": "reduction of labeled (glucose-derived) intracellular serine", "setting": "[6]; universally labeled carbon-13 glucose", "value": "> 75", "unit": "%"}, {"measurement": "reversibility of inhibition of serine synthesis in cells", "setting": "[6]; washout", "value": "reversible"}, {"measurement": "incorporation of carbon-13 from glucose into serine in the brain", "setting": "[7]", "value": "block incorporation"}, {"measurement": "cell cycle effect", "setting": "[8]", "value": "G1/S arrest"}]}]}
